Reference: paper PMC6933707, “Palmitoylethanolamide counteracts substance P-induced mast cell activation in vitro by stimulating diacylglycerol lipase activity” (Journal of Neuroinflammation, 2019)
“And” between values parts separate entries of the source, which are not always exact repeats. Identical values can stand only once. Like-named read-outs stand apart in the source and are kept apart here.

Tests used:
RBL-2H3 cells [1] = assay: LC-APCI-MS measurement of endogenous AEA, 2-AG and PEA levels; format: cell-based, rat; settings: for increase of endogenous levels of 2-AG: 15 min
Procedure: RBL-2H3 cells (9 × 10^5 cells/well) were stimulated with SP (10 μM) and treated with PEA (10 μM) in the presence and absence of OMDM188 (10 μM), for 15 min at 37 °C in 5% CO2 atmosphere. After 15 min, cells and supernatants were collected and homogenized in a solution of CHCl3/CH3OH/Tris-HCl 50 mM pH 7.4 (2:1:1, v/v) containing 10 pmol of [^2H]8-AEA, [^2H]5-2-AG and [^2H]4-PEA as internal standards. The lipid-containing organic phase was dried down, weighed and pre-purified by open-bed chromatography on silica gel. Fractions obtained by eluting the column with a solution of CHCl3/CH3OH (90:10 by vol.) were analyzed by Liquid Chromatography-Atmospheric Pressure Chemical Ionization-Mass Spectrometry (LC-APCI-MS) using a Shimadzu (Shimadzu, Kyoto, Japan) HPLC apparatus (LC-10ADVP) coupled to a Shimadzu (LCMS-2020) quadrupole MS via a Shimadzu APCI interface. LC-APCI-MS analyses of 2-AG and PEA were carried out in the selected ion monitoring mode, using m/z values of 356 and 348 (molecular ions + 1 for deuterated and undeuterated AEA), 384.35 and 379.35 (molecular ions + 1 for deuterated and undeuterated 2-AG), and 304 and 300 (molecular ions + 1 for deuterated and undeuterated PEA). AEA, 2-AG and PEA levels were calculated on the basis of their area ratio with the internal deuterated standard signal areas, and their amounts (pmol) were normalized per mg of lipid extract.

RBL-2H3 cells [2] = format: cell-based; settings: 15 min
Procedure: The relative number of live and dead cells was measured after 15 min in RBL-2H3 cells (2 × 10^5 cells/well) stimulated with SP (10 μM) and treated with PEA (10 μM) by using MultiTox-Glo multiplex cytotoxicity kit, according to the manufacturer’s instructions (Promega Italia). Relative fluorescence units (RFU) were measured by using a GloMax Multi Detection System (Promega Italia).

MGL = MGL enzyme activity assay (COS-7 cytosolic fractions); format: biochemical; settings: up to 25 μM
Procedure: The 10,000×g cytosolic fractions obtained from COS-7 cells (100 μg of protein) were incubated with 2-arachidonoyl-[^3H]-glycerol (40 Ci/mmol, St. Louis, MO, USA) diluted with non-radiolabeled 2-AG (20 μM) in the presence of vehicle or increasing concentrations of PEA (0.1-25 μM), in Tris-HCl 50 mM pH 7.4 at 37 °C for 20 min [42]. After the incubation, the amounts of [^3H]-glycerol were measured in the aqueous phase [after extraction of the incubation mixture with 2 volumes of CHCl3/CH3OH (1:1, v/v)] by using Liquid Scintillation Analyzer (TRI-carb 2100TR).

RBL-2H3 cells [3] = assay: Quantitative real-time PCR of PEA/2-AG receptors and metabolic enzymes; format: cell-based, rat; settings: cells stimulated 15 min with SP 10 μM or PEA 10 μM or both, vs unstimulated
Description: The mRNA expression of PEA target genes (Cnr1, Cnr2, Trpv1, Ppara, and Gpr55), as well as PEA and 2-AG biosynthetic (N-acyl phosphatidylethanolamine-specific phospholipase D, Napepld, Dagla and Daglb) and catabolic enzyme genes (fatty acid amide hydrolase, Faah; N-acylethanolamine-hydrolyzing acid amidase, Naaa; and monoacylglycerol lipase, Mgl), was studied by comparison of transcriptional expression in unstimulated RBL-2H3 cells (plated on 100 mm diameter Petri dishes) vs. the expression of these targets and enzymes in RBL-2H3 cells treated with PEA (10 μM), or stimulated with SP (10 μM) in the presence and absence of PEA (10 μM), for 15 min at 37 °C in 5% CO2 atmosphere. Total RNA was purified, quantified and reverse transcribed as previously reported. For each target, all mRNA sequences were aligned and common primers were designed (Table 1). Quantitative real-time PCR was performed by an iCycler-iQ5 in a 20 μl reaction mixture using 20 ng of cDNA. Assays were performed in quadruplicate (maximum ΔCt of replicate samples < 0.5). Optimized primers for SYBR-green analysis and optimum annealing temperatures were designed by the Allele-Id software version 7.0 (Biosoft International) and were synthesized (HPLC-purification grade) by MWG-Biotech. […] Results were expressed as fold expression compared with a reference condition (2^^−∆∆ct formula).

[4] = SP (10 μM)-stimulated cells, PEA 10 μM, vs vehicle-stimulated cells
[5] = substance alone 10 μM, vs vehicle

CCCCCCCCCCCCCCCC(=O)NCCO [PEA, Palmitoylethanolamide]
increase of endogenous levels of 2-AG (RBL-2H3 cells [1]; PEA 10 μM alone, in the absence of SP, compared to vehicle-treated cells): 1.8 fold and ~ 2 fold
estimated increase of 2-AG concentration in cells (RBL-2H3 cells [1]; SP-stimulated cells treated with PEA 10 μM vs unstimulated cells): 0.5 µM
increase of endogenous levels of 2-AG (RBL-2H3 cells [1]; SP-stimulated cells treated with PEA 10 μM, compared to SP-stimulated cells treated with PEA vehicle): 1.6 fold and ~ 2 fold
increase of endogenous levels of 2-AG (RBL-2H3 cells [1]; SP-stimulated cells treated with PEA 10 μM, compared to cells only treated with vehicle): 1.4 fold
endogenous levels of AEA (RBL-2H3 cells [1]; SP-stimulated cells treated with PEA 10 μM, vs SP + PEA vehicle): no statistically significant increase
estimated concentration of 2-AG in cells (RBL-2H3 cells [1]; SP-stimulated cells treated with PEA 10 μM, estimated from 1 mg lipids per 10 mg (10 μl) cell pellet, 0.7 μM in unstimulated cells): about 1.2 μM
increase of levels of AEA (RBL-2H3 cells [1]; unstimulated cells following PEA treatment (discussion)): ~ 2 fold
endogenous levels of AEA (RBL-2H3 cells [1]; unstimulated cells treated with PEA alone 10 μM, vs vehicle): statistically significant increase
cell viability (RBL-2H3 cells [2]; [4]): did not alter
cytotoxicity (RBL-2H3 cells [2]; [4]): did not alter
cell viability (RBL-2H3 cells [2]; [5]): No effect
cytotoxicity (RBL-2H3 cells [2]; [5]): No effect
inhibitory effect on MGL activity (MGL): no inhibitory effect
maximal % inhibition of MGL activity (MGL): < 5%
mRNA expression of Cnr2, Napepld, Naaa, Daglb, Faah and Mgl (RBL-2H3 cells [3]): no statistically significant change
